From US20090069328A1, “ALPHA-ALKYL SUBSTITUTED N-ACYLTRYPTOPHANOLS” (priority 2007, published 2009) come the findings set out here.

By IC50 is commonly meant the midpoint of a concentration-inhibition curve.

This assay addresses T1, human FSH receptor (Homo sapiens, UniProt P23945).
T1 construct: expressed in transfected cells; host or cells: CHO cells (hFSHR clone 16)
T1 sequence (P23945 18-695): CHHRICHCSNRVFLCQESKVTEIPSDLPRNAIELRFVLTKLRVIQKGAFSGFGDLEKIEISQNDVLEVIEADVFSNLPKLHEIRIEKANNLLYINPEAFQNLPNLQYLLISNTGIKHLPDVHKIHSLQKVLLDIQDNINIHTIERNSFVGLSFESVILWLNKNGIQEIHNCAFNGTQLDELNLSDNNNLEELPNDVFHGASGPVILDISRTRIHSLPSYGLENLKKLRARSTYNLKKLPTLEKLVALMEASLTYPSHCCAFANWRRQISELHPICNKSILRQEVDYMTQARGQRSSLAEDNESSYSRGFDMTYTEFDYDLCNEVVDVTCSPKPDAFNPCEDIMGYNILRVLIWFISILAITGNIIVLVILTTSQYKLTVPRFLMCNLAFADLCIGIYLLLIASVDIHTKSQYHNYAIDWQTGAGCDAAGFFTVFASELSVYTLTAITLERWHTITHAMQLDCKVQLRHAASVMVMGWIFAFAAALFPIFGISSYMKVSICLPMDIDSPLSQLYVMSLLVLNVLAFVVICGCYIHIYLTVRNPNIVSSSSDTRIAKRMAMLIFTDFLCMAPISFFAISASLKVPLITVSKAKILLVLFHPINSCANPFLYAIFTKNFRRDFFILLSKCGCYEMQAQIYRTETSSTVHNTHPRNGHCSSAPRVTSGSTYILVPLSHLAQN
The assay can be described thus: HTRF assay for measuring cAMP in cells (FSH antagonism). The assay is classed as cell-based. The following applies: hFSHR clone 16 cells (CHO cells stably transfected with the human FSH receptor); in the presence of 1e-9 mol/l hFSH; cAMP readout; read-out: IC50 (FSH antagonistic effect in the HTRF assay). The method, then:
HTRF Assay for Measuring cAMP in Cells
The method is based on a competitive immunoassay between native cAMP, which has been produced by the cells, and cAMP which is labelled with cAMPD2 conjugate. The tracer binding was visualized by a monoclonal antibody, anti-cAMP labelled with cryptate [HTRF=homogeneous time-resolved fluorescence].
The specific signal is inversely proportional to the cAMP concentration of the samples employed.
The 665 nm/620 nm fluorescence ratio was evaluated.
The following material was used: 96-well plates for the tissue culture, 96-well plates with black edge and black base (e.g. Fluotrac 600 from Greiner), 96-well plates for the substance dilutions of polypropylene and cAMP Femtomolar (4000wells Kit, CIS Bio International #62AM5PEJ).
The following reagents were used: BSA (bovine serum albumin) Fraction V protease-free, IBMX (3-isobutyl-1-methylxanthine), hFSH (human follicle stimulating hormone), Triton X-100 analytical grade, potassium fluoride analytical grade, G 418 (Geneticin) and Accutase.
Buffer 1 (washing and testing buffer) contained PBS, 1 mM CaCl2, 1 mM MgCl2, 0.2% glucose; 0.1% BSA, 1 mM IBMX.
Buffer 2 (2× lysis buffer) contained 1% Triton X-100 in PBS (without CaCl2 and MgCl2).
Buffer 3 (assay buffer) contained 50 mM potassium phosphate buffer (pH 7.0); 800 mM potassium fluoride; 0.2% BSA (always added fresh).
On day 1, the cells were seeded in 96-well plates (3×10^4 cells per well hFSHR clone 16 cells (CHO cells stably transfected with the human FSH receptor in 150 μl of medium). The next day, test substance dilutions were made up. For this purpose, all the substances were diluted in ice-cold buffer 1 (with or without hFSH), and the substance dilutions were placed on ice until applied to the cells.
The cell supernatant was then aspirated off, and the cells were washed 2× with 200 μl of buffer 1. The cells were treated with 60 μl of the appropriate substance concentrations at 37° C. for 2 h. The cells were then lysed with 60 μl of buffer 2 (put onto the supernatant) (on a plate shaker at RT for 30 min).
The test conjugates (cAMP-D2 and anti-cAMP cryptate, CIS Bio) were diluted in buffer 3 in accordance with the manufacturers' information. The actual mixture for measurement was pipetted into a black 96-well plate (in each case 15 μl of the cell lysate diluted with 35 μl of buffer 1; firstly 25 μl of cAMP-D2 conjugate were pipetted and, after 10 min, 25 μl of the anti-cAMP cryptate were added). This is followed by incubation at RT for 90 minutes. The measurement was carried out in a PheraStar (BMG).
Dose-effect curve (hFSH) for the human receptor: 1e-8, 3e-9, 1e-9, 3e-10, 1e-10, 3e-11, 1e-11, 3e-12 mol/l.
The test substances were employed in suitable dilutions in the absence (test for agonism) and in the presence of 1e-9 mol/l hFSH.
The values of the well ratio were averaged and then entered directly in SigmaPlot versus the concentrations. The maximum and minimum values were determined for each plate, and half the difference is to be regarded as IC50.
For the molecule `COc1ccc(-c2ccc(OC(C)C)c(C(=O)NC(C)(CO)Cc3c[nH]c4ccccc34)c2)cc1OC` (racemic) [Example 4, 4-Isopropoxy-3′,4′-dimethoxy-biphenyl-3-carboxylic acid [1-hydroxymethyl-2-(1H-indol-3-yl)-1-methyl-ethyl]-amide], the concentration for half-maximal inhibition (IC50) is 50 nM. Next, `CC(C)Oc1ccc(C#Cc2ccccc2)cc1C(=O)NC(C)(CO)Cc1c[nH]c2ccccc12` (centres unmarked) [Example 1, N-[1-Hydroxymethyl-2-(1H-indol-3-yl)-1-methyl-ethyl]-2-isopropoxy-5-phenylethynyl-benzamide]: 1000 nM; `CNC(=O)c1cc(F)cc(-c2ccc(OC(C)C)c(C(=O)NC(C)(CO)Cc3c[nH]c4ccccc34)c2)c1` (centres unmarked) [Example 2, 5′-Fluoro-4-isopropoxy-biphenyl-3,3′-dicarboxylic acid 3-{[2-hydroxy-1-(1H-indol-3-ylmethyl)-1-methyl-ethyl]-amide} 3′-methylamide]: 1000 nM; `CNC(=O)c1ccc(-c2ccc(OC(C)C)c(C(=O)NC(C)(CO)Cc3c[nH]c4ccccc34)c2)cc1Cl` (centres unmarked) [Example 3, 3′-Chloro-4-isopropoxy-biphenyl-3,4′-dicarboxylic acid 3-{[2-hydroxy-1-(1H-indol-3-ylmethyl)-1-methyl-ethyl]-amide}-4′-methylamide]: 100 nM. Then `COc1ccccc1C#Cc1ccc(OC(C)C)c(C(=O)NC(C)(CO)Cc2c[nH]c3ccccc23)c1` (centres unmarked) [Example 5, N-[1-Hydroxymethyl-2-(1H-indol-3-yl)-1-methyl-ethyl]-2-isopropoxy-5-(2-methoxy-phenylethynyl)-benzamide], with 200 nM.
